Source: US11944624B2, “Peptide and small molecule agonists of EphA and their uses” (CASE WESTERN RESERVE UNIVERSITY, priority 2017, dated 2024)

Experiments:
endogenous EphA2 = endogenous EphA2 (Homo sapiens, UniProt P29317); assay: Activation of endogenous EphA2 in PC-3 cells (pEphA/B immunoblot); assay type: cell-based; set-up: host or cells: PC-3; details: 30 minutes
Method: (§1) Cells were plated in 24-well dishes at a density of 100,000 cells/well and grown for 24 hours prior to stimulation with appropriate compounds and ephrins for the given amounts of time. Compounds were prepared in DMSO at 500 times the final concentrations and 0.2% DMSO was used as vehicle control. Following treatment, cells were lysed directly in SDS Gel Loading Buffer and immunoblotted as described previously. Immunoprecipitation and immunofluorescence staining was performed as described. For immunoprecipitation, 300,000 cells/well were plated in 6-well dishes and lysed in modified RIPA Buffer (20 mM Tris-HCl pH 7.4, 20 mM NaF, 150 mM NaCl, 10% glycerol, 0.1% SDS, 0.5% DCA, 2 mM EDTA, 1% Triton X-100) following treatment. Either 10 μg of ephrin-A1-Fc, or […] of EphA2 mouse monoclonal antibody (Clone D7, Millipore) were used, and mouse IgG was used as a negative control for EphA2 IP.
To determine whether the EphA2 agonist activity of doxazosin is cell-context specific, we evaluated the effects of doxazosin on additional cell types. We first utilized HEK 293 cells overexpressing EphA2 (HEK 293-A2) that we described previously. […] Next we tested PC-3 cells that express high levels of endogenous EphA2 receptor. […] We next evaluated the time-course of activation in both MDA-231-A2 and HEK 293-A2 cells upon treatment with a single 50 μM dose of doxazosin.

ERK1/2 and Akt = assay: Inhibition of ERK1/2 and Akt activation in A172-A2 cells; assay type: cell-based; details: 50 μM and 100 μM
Method: as §1
Activation of EphA2 receptor by ephrin-A1 ligand inhibits both ERK1/2 and Akt kinase activities in most normal cells and a subset of cancer cells. […] We first tested this by utilizing the A172 glioma cells engineered to overexpress EphA2 receptor (A172-A2).

ERK and Akt activities = ERK and Akt activities in LK133A-A2 cells (EphA2 restored); assay type: cell-based, mice
Method: as §1
To address this question, we utilized an immortalized liver epithelial cell line, LK133A, isolated from a hepatoma induced by DEN in EphA2 knockout mice. Retroviral vector was used to restore EphA2 expression in these cells (LK133A-A2), and cells transduced with an empty vector were used as control (LK133AVec).

Chain of endogenous EphA2 (P29317 24-976): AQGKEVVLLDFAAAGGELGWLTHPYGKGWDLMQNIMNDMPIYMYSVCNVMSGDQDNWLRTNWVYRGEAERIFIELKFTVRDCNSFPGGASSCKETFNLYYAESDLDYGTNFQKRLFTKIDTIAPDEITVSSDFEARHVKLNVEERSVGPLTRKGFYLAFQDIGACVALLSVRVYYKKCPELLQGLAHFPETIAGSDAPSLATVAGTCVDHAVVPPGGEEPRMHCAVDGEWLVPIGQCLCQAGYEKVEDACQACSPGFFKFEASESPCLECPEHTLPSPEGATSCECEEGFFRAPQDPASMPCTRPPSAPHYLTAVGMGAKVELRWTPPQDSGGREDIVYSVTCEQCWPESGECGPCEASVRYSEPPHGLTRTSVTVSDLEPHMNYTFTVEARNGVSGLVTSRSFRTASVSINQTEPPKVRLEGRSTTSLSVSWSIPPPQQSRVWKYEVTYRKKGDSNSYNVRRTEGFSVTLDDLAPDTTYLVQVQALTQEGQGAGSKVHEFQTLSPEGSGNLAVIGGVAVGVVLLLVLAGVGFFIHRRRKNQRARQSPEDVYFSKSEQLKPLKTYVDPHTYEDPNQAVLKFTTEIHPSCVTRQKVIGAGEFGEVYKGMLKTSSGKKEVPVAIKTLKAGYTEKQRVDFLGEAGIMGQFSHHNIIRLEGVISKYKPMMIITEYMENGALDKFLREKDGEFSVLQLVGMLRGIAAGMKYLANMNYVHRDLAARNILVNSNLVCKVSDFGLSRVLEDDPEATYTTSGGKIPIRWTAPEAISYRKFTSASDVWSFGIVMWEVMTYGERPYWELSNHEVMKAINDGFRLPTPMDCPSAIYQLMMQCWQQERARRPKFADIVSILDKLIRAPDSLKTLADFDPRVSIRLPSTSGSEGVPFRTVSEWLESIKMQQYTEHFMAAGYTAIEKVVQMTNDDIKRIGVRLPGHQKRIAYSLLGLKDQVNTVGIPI

SMILES: COc1cc2nc(N3CCN(C(=O)C4COc5ccccc5O4)CC3)nc(N)c2cc1OC (stereo not drawn) [Doxazosin, 2-[4-(2,3-Dihydro-1,4-benzodioxine-2-carbonyl)piperazin-1-yl]-6,7-dimethoxyquinazolin-4-amine]
- concentration at which EphA2 activation becomes evident (endogenous EphA2): 50 µM
- inhibition of Akt and ERK1/2 activation (ERK1/2 and Akt): significant inhibition of Akt and ERK1/2 activation
- ERK and Akt inhibition after reintroduction of EphA2 (ERK and Akt activities): restored ERK and Akt inhibition
